The values below are quoted from earlier work in patent US20130172299A1, “Combination Therapy for Treatment of Bone and Mineral Disorders for Patients with Impaired Renal Function” (priority 2008, published 2013).

Each structure is given as a SMILES string.

For data set [1] the following is noted: hemodialysis patients.

In the case of `NC(=O)c1cccnc1` [nicotinamide], in data set [1], the LDL cholesterol result is listed as “decreased”, the “serum HDL cholesterol” value is on record as “increased”, the serum calcium levels entry was “did not change” and the serum phosphorous levels result is listed as “significantly reduced”.

Regarding `Cc1c(O)cc2c(c1C)O[C@](C)(CCC[C@H](C)CCC[C@H](C)CCCC(C)C)CC2` [Gamma tocopherol], the “inflammation in ESRD” value (300 mg po qd for 14 days) is given as “efficacy in reducing inflammation”. The serious adverse events result (300 mg po qd, 15 patients treated for 14 days) is “no serious adverse events were reported”.
